Measured values reported in patent EP3595655B1, “THERAPEUTIC DOSAGE AND REGIMEN FOR MELATONIN” (Chiesi Farmaceutici S.p.A., priority 2017, dated 2018).
“Also recorded” adds a separate entry of the source. Where two headings read alike, the source gives them in different places.

What was measured:
[1] = Plasma melatonin levels in piglets (direct radioimmunoassay); assay type: in vivo; conditions: melatonin-treated piglets; therapeutic range from Robertson et al. 2013
[2] = test system: rat organotypic hippocampal slice cultures; assay: Oxygen-glucose deprivation (OGD) in organotypic hippocampal slice cultures, cell death by propidium iodide incorporation; assay type: cell-based; conditions: for Cell death, estimated by propidium iodide incorporation, induced by OGD: OGD alone 90.8 ± 7.6%
Excerpt: Concentration-response studies were aimed at detecting the range of concentration of melatonin resulting in neuroprotection against oxygen-glucose deprivation (OGD), an experimental model simulating hypoxia-ischemia and reperfusion. Ischemia was simulated in vitro by anoxia combined with a glucose-free media (OGD) in rat organotypic hippocampal slice cultures.

[3] = Solubilisation of melatonin with Captisol, with or without PEG, in different vehicles; assay type: physicochemical; conditions: Captisol solutions in WFI, glucose 10% solution or phosphate buffer
Protocol: The first set of experiments was aimed to assess the possibility to solubilise melatonin with different quantity of sulfobutylether-β-cyclodextrin (Captisol™). The test was performed by the addition of melatonin. In the solution containing the Captisol at different concentrations up to presence of undissolved material on the bottom; the solution was filtered and analysed. These tests were performed with three different vehicles: water for injection (WFI), glucose 10% solution and phosphate buffer. In a second set of experiments, PEG with different molecular weights (PEG 300 and PEG 400) was added to verify the possibility to reduce the amount of Captisol used for the dissolution. The results of the first set of experiments, were obtained measuring the assay in formulation at the higher solubility limits having on the bottom some undissolved particles. […] Captisol concentration of 5% was identified as a suitable one, and confirmed by the other results.

[4] = test system: piglet model of neonatal asphyxia; conditions: for NTP/epp (whole forebrain, 9.4T MRS): 24h after hypoxia-ischaemia, melatonin 15 mg/kg i.v. over 6h at 2h and 26h plus cooling, p=0.038; for cell death (TUNEL positive cells) in the sensorimotor cortex: p<0.003, p=0.003 (Fig. 4)
Protocol: Objective: To assess neuroprotection of intravenous melatonin (15 mg/kg) infused slowly over 6h (2.5 mg/kg/h) initiated 2 h after hypoxia-ischaemia in a piglet model of neonatal asphyxia (Fig. 1). Primary outcome measures were TUNEL immuno-labelling of cell death over 9 brain regions (Fig. 2). Secondary outcomes were amplitude-integrated electroencephalography(aEEG) recovery, and magnetic resonance spectroscopy (MRS) biomarkers (NTP/epp and lactate/N acetyl aspartate).
During hypoxia-ischemia the β-NTP peak height was continuously monitored using in-house Matlab (Mathworks) software. At the point at which β-NTP had fallen to 50% of its baseline value, FiO2 was increased to 9%. […] The head was immobilized in a stereotactic frame for MRS acquisition. […] After surgical preparation, multichannel six-lead EEG monitoring (Nicolet, Care Fusion, Wisconsin, USA) was acquired at baseline and throughout the periods between MRS data acquisitions. Filtered amplitude-integrated EEG recordings were classified according to the pattern classification. A score of 0 was flat trace; 1, continuous low voltage; 2, burst suppression; 3, discontinuous normal voltage; and 4, continuous normal voltage, at baseline and then every hour after hypoxia-ischemia. […] Blood samples were collected in lithium/heparin tubes and centrifuged immediately after collection. Plasma was separated and then stored at - 20°C before analysis. Melatonin was routinely measured by direct radioimmunoassay.

newborn piglets = conditions: intravenous 5 mg/kg/h over six hours (30 mg/kg), 10 minutes after resuscitation; cited from earlier work

COc1ccc2[nH]cc(CCNC(C)=O)c2c1 [melatonin, N-[2-(5-Methoxy-1H-indol-3-yl)ethyl] acetamide]
plasma levels [1]: within the expected therapeutic range
Cell death, estimated by propidium iodide incorporation, induced by OGD ([2]; 3 µM melatonin): 57.6 ± 6.9%
Cell death, estimated by propidium iodide incorporation, induced by OGD ([2]; 10 µM melatonin): 60.9 ± 7.4%
Cell death, estimated by propidium iodide incorporation, induced by OGD ([2]; 25 µM melatonin): 47.3 ± 3.8%
Cell death, estimated by propidium iodide incorporation, induced by OGD ([2]; 50 µM melatonin): 38.9 ± 4.2%
statistical analysis of the effect on OGD-induced cell death ([2]; all doses tested with the exception of 1 uM, p<0.01 Dunnet's test after ANOVA): significant effect
reduction of OGD-induced cell death ([2]; hippocampal slice cultures of neonatal rats, 1-50 µM): concentration-dependent manner
influence of glucose or buffer as vehicle on solubility [3]: does not influence the solubility
3T MRS: NTP/epp and PCr/Pi in whole forebrain, Lac/NAA in thalamus and white matter ([4]; 24 and 48h after hypoxia-ischaemia): no difference in any ratio
NTP/epp (whole forebrain, 9.4T MRS) ([4]; versus vehicle): ameliorated the NTP/ePP decline
NTP/epp (whole forebrain, 9.4T MRS) ([4]; versus vehicle, listed as Melatonin): higher
9.4T MRS: NTP/epp and PCr/Pi in whole forebrain, Lac/NAA in thalamus and white matter ([4]; baseline, 24 and 48h after hypoxia-ischaemia, melatonin 5 and 15 mg/kg groups versus vehicle, apart from 24h NTP/epp): no difference
group mean hourly aEEG scores ([4]; between groups at any time point): no difference
brain protection ([4]; melatonin 5 mg/kg/24h i.v. over 6h started 2h after hypoxia-ischaemia plus cooling): no protection
cell death (TUNEL positive cells) in the sensorimotor cortex ([4]; melatonin 15 mg/kg/24h i.v. over 6h started 2h after hypoxia-ischaemia plus cooling, versus vehicle, 48h): significant protection; also recorded: significant reduction in TUNEL positive cells
cell death (TUNEL positive cells) in the sensorimotor cortex ([4]; melatonin 15 mg/kg/24h i.v. over 6h started 2h after hypoxia-ischaemia plus cooling, versus vehicle, 48h, listed as Melatonin): reduced cell death
cell death (TUNEL positive cells) across the whole brain ([4]; melatonin 15 mg/kg/24h i.v. over 6h started 2h after hypoxia-ischaemia plus cooling, versus vehicle, 48h, p=0.068, p=0.069 (Fig. 4)): trend of reduced cell death; also recorded: trend to overall brain reduced TUNEL positive cells; also recorded: trend towards reduced TUNEL positive cells
physiological parameters monitored, including mean arterial pressure and inotrope use ([4]; piglets, melatonin i.v. infusion plus cooling): did not affect
hypothermic neuroprotection (newborn piglets): increases hypothermic neuroprotection
